Experimental data reported in US7998989B2, “2-Imino-1,3-thiazoline-based compounds and T-type calcium channel inhibitors containing the same” (Korea Institute of Science and Technology, priority 2007, dated 2011).
Counter-ions that a name gives are not always drawn.

Target: T1, α1G T-type calcium channel (Homo sapiens, UniProt O43497)
T1 construct: host or cells: HEK293
Experiment: Assay for % inhibiting activity against T-type calcium channel using FDSS6000 (fluo-3 calcium imaging, KCl activation)
Type: cell-based
Settings: 10 μM; FDSS (% inhibition); comparative compounds where R6 is a phenyl group; read-out: FDSS
Experimental: In the present invention, in order to examine an efficient inhibitor against the T-type calcium channel, a primary assay for T-type calcium channel inhibiting activity was conducted by a high-efficient assay using FDSS6000, wherein mammal HEK293 cell lines (originated from human kidney carcinoma cells) that specifically express α1G of the T-type calcium channel was used for primary assay. Through the primary assay, compounds that show meaningful inhibition effects were selected. The selected compounds were used in a second assay for T-type calcium channel inhibiting activity using an electrophysiological whole cell patch clamp method, wherein mammal HEK293 cell lines (originated from human kidney carcinoma cells) that specifically express α1G of the T-type calcium channel was used for the second assay. Mibefradil, which had been developed as a T-type calcium channel inhibitor, was used as a reference.
At 12-24 hours before being used for this assay, cells of HEK293 cell line (α1G cell line: KCTC 10519BP, Korean Collection for Type Cultures), which stably express α1G T-type calcium channel and Kir2.1, were sub-cultured in a poly-L-lysine treated 96-well plate with the density of 4×10^4 per well using a 96-well cell dispenser (Titertek). On the day of assay, the 96-well plate to which the cells were attached was washed three times with HEPES buffer solution (150 mM of NaCl, 5 mM of KCl, 1 mM of MgCl2, 2 mM of CaCl2, 10 mM of HEPES, 10 mM of glucose; pH 7.4) using a 96-well plate automatic washing device (Bio Tek), then reacted with HEPES buffer solution containing 5 μM fluo-3/AM and 0.001% Pluronic F-127 at room temperature for 1 hour, to label with fluorescent dye, and then further washed two times with HEPES buffer solution.
Thereafter, at 10 minutes before the measurement using device FDSS6000, washing with HEPES buffer solution containing 10 mM CaCl2 was conducted once more, and the final volume was adjusted to 81 μl. Besides the above 96-well plate containing the cells, two additional drug 96-well plates were provided, wherein the 96-well plates contained an inhibiting drug and KCl (final concentration: 75 mM) for activating the T-type calcium channel, respectively. Since most of cell-based HTS devices are equipped with a liquid application system for injection of drug, but have no liquid sucking system, the inhibiting drug to be tested and KCl were respectively provided at a five-times higher concentration in 10 mM CaCl2 HEPES buffer solution at the amount of 27 μl, diluted by five-times at the final cell plate volume of 135 μl, and then used in this test. The concrete method of measurement using FDSS6000 was as follows. After recording the reference value of 20 seconds, the change of intracellular Ca^2+ concentration that was induced by treatment of the inhibiting drug to be tested for 75 seconds followed by administration of KCl was measured, wherein the percentage (%) inhibition effect of the test drug, through estimating the area of ratio value of 340/380 in the control without treatment of the test drug, was 100%. As a reference drug, 10 μM mibefradil was used.
For accurate calcium imaging, the light source of 4 xenon lamps in FDSS6000 were radiated to selectively expose the cells to the excitation wavelength (340 nm and 380 nm) by a computer-controlled filter wheel. Data was obtained at intervals of 1.23 seconds. The emitter fluorescence light inflowed through a long-pass filter was obtained as an average 340/380 ratio value for each well in the 96-wells by using a CCD camera and a digital fluorescence analyzer in FDSS6000. All image data and analyses were obtained by using a FDSS6000-exclusive program from Hamamatsu Photonics.
The obtained results are shown in Table 2 (the results from the compounds according to the examples of the present invention) and Table 3 (the results from the compounds according to the comparative example where R6 is a phenyl group) [FDSS (% inhibition) 10 μM].

T1 sequence (O43497 whole entry): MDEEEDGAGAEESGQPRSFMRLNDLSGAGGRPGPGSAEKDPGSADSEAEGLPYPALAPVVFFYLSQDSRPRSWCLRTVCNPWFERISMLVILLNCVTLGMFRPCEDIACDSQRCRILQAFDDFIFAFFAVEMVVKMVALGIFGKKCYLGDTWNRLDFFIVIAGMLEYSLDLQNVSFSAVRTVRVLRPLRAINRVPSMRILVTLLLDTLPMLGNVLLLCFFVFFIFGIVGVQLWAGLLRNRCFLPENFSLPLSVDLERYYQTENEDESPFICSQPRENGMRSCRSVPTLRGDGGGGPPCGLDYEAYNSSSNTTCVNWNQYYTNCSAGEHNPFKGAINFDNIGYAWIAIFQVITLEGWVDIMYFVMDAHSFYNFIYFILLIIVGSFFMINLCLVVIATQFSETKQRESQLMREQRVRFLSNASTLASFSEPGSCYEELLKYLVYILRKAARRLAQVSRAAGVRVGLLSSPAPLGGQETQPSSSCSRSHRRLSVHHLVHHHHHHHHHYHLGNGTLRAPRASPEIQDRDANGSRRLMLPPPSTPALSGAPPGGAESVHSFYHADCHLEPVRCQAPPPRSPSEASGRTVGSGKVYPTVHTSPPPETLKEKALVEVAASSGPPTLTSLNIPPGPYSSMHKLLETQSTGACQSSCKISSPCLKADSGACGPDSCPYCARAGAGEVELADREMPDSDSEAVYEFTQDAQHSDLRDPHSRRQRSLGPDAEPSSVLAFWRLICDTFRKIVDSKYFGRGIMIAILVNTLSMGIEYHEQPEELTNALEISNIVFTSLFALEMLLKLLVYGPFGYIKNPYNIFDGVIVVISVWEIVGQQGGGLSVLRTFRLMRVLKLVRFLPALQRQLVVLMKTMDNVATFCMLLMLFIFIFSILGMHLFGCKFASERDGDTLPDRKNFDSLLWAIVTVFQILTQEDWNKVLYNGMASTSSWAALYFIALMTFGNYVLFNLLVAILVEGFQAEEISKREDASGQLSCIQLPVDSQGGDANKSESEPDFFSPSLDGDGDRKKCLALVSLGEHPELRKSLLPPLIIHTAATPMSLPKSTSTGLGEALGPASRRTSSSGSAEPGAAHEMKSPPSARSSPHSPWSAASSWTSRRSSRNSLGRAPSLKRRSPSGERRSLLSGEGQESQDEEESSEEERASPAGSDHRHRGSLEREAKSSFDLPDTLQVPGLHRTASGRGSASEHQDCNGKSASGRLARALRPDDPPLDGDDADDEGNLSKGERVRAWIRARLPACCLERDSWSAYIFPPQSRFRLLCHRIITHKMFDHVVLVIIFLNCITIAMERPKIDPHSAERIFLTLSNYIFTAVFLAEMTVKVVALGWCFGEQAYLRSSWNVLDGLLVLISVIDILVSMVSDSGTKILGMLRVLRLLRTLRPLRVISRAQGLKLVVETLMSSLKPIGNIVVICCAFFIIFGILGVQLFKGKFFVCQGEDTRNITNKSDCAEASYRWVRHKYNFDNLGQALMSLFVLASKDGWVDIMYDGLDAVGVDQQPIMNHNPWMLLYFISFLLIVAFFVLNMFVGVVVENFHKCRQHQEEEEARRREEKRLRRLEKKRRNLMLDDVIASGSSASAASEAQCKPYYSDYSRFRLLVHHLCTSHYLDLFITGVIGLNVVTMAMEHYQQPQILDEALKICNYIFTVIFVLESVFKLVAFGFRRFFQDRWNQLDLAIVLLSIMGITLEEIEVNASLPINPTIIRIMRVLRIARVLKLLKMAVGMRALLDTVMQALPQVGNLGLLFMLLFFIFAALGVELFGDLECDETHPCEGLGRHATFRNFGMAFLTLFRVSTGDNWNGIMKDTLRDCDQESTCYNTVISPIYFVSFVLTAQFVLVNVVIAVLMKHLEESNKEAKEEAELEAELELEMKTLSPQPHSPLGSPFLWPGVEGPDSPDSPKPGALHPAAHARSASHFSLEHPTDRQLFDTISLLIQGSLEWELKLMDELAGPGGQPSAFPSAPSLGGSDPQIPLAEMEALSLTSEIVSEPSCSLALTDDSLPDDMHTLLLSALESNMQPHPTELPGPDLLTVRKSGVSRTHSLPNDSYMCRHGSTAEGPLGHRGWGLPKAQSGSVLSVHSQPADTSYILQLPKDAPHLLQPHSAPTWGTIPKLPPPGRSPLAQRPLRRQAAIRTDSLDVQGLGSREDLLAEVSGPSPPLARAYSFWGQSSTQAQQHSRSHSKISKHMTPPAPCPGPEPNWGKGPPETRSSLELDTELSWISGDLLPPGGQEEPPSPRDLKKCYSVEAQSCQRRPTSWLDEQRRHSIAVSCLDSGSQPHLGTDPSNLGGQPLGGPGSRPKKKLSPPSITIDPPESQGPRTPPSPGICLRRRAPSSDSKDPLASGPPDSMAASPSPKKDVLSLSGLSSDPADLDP

| inhibition at 10 µM | Structure (SMILES) |
| --- | --- |
| 5.76% | CN1C(=Nc2ccc(C(F)(F)F)cc2)SCC1CC(=O)Nc1ccc(Cl)cc1F.Cl (stereo not drawn) [KHG23068, [2-(4-trifluoromethylphenylimino)-3-methyl-1,3-thiazolidine-4-yl]-N-(4-chloro-2-fluorophenyl)-acetamide hydrochloride] |

Same assay, conditions: 10 μM; HEK293 cells stably expressing α1G T-type calcium channel and Kir2.1; compounds of the examples

| FDSS (% inhibition)/10uM | Structure (SMILES) |
| --- | --- |
| 57.43% | CCCCc1ccc(NC(=O)CC2CSC(=NC34CC5CC(CC(C5)C3)C4)N2C)cc1.Cl (stereo not drawn) [KHG24409] |
| 66.47% | CCCCN1C(=NC23CC4CC(CC(C4)C2)C3)SCC1CC(=O)Nc1ccc2c(c1)OCO2.Cl (stereo not drawn) [KHG24803, [2-(1-adamantylimino)-3-n-butyl-1,3-thiazolidine-4-yl]-N-(3,4-dioxymethylenephenyl)-acetamide hydrochloride] |

Second part, the molecule before the results:

| Structure (SMILES) | FDSS (% inhibition)/10uM |
| --- | --- |
| CC(C)N1C(=NC23CC4CC(CC(C4)C2)C3)SCC1CC(=O)Nc1ccc2c(c1)OCO2.Cl (stereo not drawn) [KHG24838, [2-(1-adamantylimino)-3-isopropyl-1,3-thiazolidine-4-yl]-N-(3,4-dioxymethylenephenyl)-acetamide hydrochloride] | 53.33% |
| CN1C(=NC23CC4CC(CC(C4)C2)C3)SCC1CC(=O)Nc1ccc(Cl)cc1F.Cl (stereo not drawn) [KHG24411] | 62.67% |
| CN1C(=NC23CC4CC(CC(C4)C2)C3)SCC1CC(=O)Nc1ccccc1.Cl (stereo not drawn) [KHG24412] | 56.4% |
| CCCN1C(=NC23CC4CC(CC(C4)C2)C3)SCC1CC(=O)Nc1ccc2c(c1)OCO2.Cl (stereo not drawn) [KHG24837, [2-(1-adamantylimino)-3-n-propyl-1,3-thiazolidine-4-yl]-N-(3,4-dioxymethylenephenyl)-acetamide hydrochloride] | 68.43% |
| Cl.O=C(CC1CSC(=NC23CC4CC(CC(C4)C2)C3)N1C1CC1)Nc1ccc2c(c1)OCO2 (stereo not drawn) [KHG24804, [2-(1-adamantylimino)-3-cyclopropyl-1,3-thiazolidine-4-yl]-N-(3,4-dioxymethylenephenyl)-acetamide hydrochloride] | 44.67% |

Same assay, conditions: 10 μM; HEK293 cells stably expressing α1G T-type calcium channel and Kir2.1; compounds of the examples; hydrochloride

| FDSS (% inhibition)/10uM | Structure (SMILES) |
| --- | --- |
| 62.08% | Cc1ccc(NC(=O)CC2CSC(=NC34CC5CC(CC(C5)C3)C4)N2C)c(Cl)c1.Cl (stereo not drawn) [KHG24413] |
| 64.09% | CN1C(=NC23CC4CC(CC(C4)C2)C3)SCC1CC(=O)Nc1cc(Cl)cc(Cl)c1.Cl (stereo not drawn) [KHG24410] |

Continued, molecule first:

| Structure (SMILES) | FDSS (% inhibition)/10uM |
| --- | --- |
| Cc1ccc(NC(=O)CC2CSC(=NC3CCCCC3)N2C2CCCCC2)cc1.Cl (stereo not drawn) [KHG24535, (2-cyclohexylimino-3-cyclohexyl-1,3-thiazolidine-4-yl)-N-(4-methylphenyl)-acetamide hydrochloride] | 40.31% |
| CCc1ccc(NC(=O)CC2CSC(=NC3CCCC3)N2C)cc1.Cl (stereo not drawn) [KHG24093, (2-cyclopentylimino-3-methyl-1,3-thiazolidine-4-yl)-N-(4-ethylphenyl)-acetamide hydrochloride] | 34.77% |

Same assay, conditions: HEK293, 10 μM; HEK293 cells stably expressing α1G T-type calcium channel and Kir2.1; compounds of the examples; read-out: FDSS (% inhibition)/10uM

| inhibition at 10 µM | Structure (SMILES) |
| --- | --- |
| 56.8% | CN1C(=NC2CCCCCC2)SCC1C(=O)Nc1cc(C(F)(F)F)cc(C(F)(F)F)c1 (stereo not drawn) [KHG24630, (2-cycloheptylimino-3-methyl-1,3-thiazolidine-4-yl)-N-(3,5-ditrifluoromethylphenyl)-carboxamide] |
| 30.5% | CN1C(=NC2CCCC2)SCC1CC(=O)Nc1ccc(F)cc1Cl.Cl (stereo not drawn) [KHG24095, (2-cyclopentylimino-3-methyl-1,3-thiazolidine-4-yl)-N-(2-chloro-4-fluorophenyl)-acetamide hydrochloride] |
| 53.6% | CC(C)c1ccc(NC(=O)CC2CSC(=NC3CCCCC3)N2C)cc1 (stereo not drawn) [KHG24110, (2-cyclohexylimino-3-methyl-1,3-thiazolidine-4-yl)-N-(4-isopropylphenyl)-acetamide hydrochloride] |
| 35.4% | CN1C(=NC2CCCCC2)SCC1CC(=O)Nc1cc(F)ccc1F (stereo not drawn) [KHG24087, (2-cyclohexylimino-3-methyl-1,3-thiazolidine-4-yl)-N-(2,5-difluorophenyl)-acetamide hydrochloride] |
| 33.6% | Cl.O=C(CC1CSC(=NC2CCCCC2)N1C1CCCCC1)Nc1ccc(Cl)cc1 (stereo not drawn) [KHG24266, [2-cyclohexylimino-3-cyclohexyl-1,3-thiazolidine-4-yl]-N-(4-chlorophenyl)-acetamide hydrochloride] |
| 43.1% | CCc1ccc(NC(=O)CC2CSC(=NC3CCCC3)N2C)cc1.Cl (stereo not drawn) [KHG24092, (2-cyclopentylimino-3-methyl-1,3-thiazolidine-4-yl)-N-(4-ethylphenyl)-acetamide hydrochloride] |

More lines, now with the values behind:

| Structure (SMILES) | inhibition at 10 µM |
| --- | --- |
| CCN1C(=NC2CCCCC2)SCC1CC(=O)Nc1cc(C(F)(F)F)cc(C(F)(F)F)c1.Cl (stereo not drawn) [KHG24261, [2-cyclohexylimino-3-ethyl-1,3-thiazolidine-4-yl]-N-(3,5-ditrifluoromethylphenyl)-acetamide hydrochloride] | 65% |
| CN1C(=NC2CCCCCC2)SCC1C(=O)Nc1cc(F)ccc1F.Cl (stereo not drawn) [KHG24626, (2-cycloheptylimino-3-methyl-1,3-thiazolidine-4-yl)-N-(2,5-difluorophenyl)-carboxamide hydrochloride] | 42.6% |
| CN1C(=NC2CCCCCC2)SCC1C(=O)Nc1ccc(F)c(F)c1 (stereo not drawn) [KHG24627, (2-cycloheptylimino-3-methyl-1,3-thiazolidine-4-yl)-N-(3,4-difluorophenyl)-carboxamide] | 48.5% |
| Cc1ccc(NC(=O)CC2CSC(=NC3CCCCC3)N2C2CCCCC2)cc1.Cl (stereo not drawn) [KHG24313, (2-cyclohexylimino-3-cyclohexyl-1,3-thiazolidine-4-yl)-N-(4-methylphenyl)-acetamide hydrochloride] | 31% |
| Cc1ccc(NC(=O)C2CSC(=NC3CCCCCC3)N2C)cc1 (stereo not drawn) [KHG24628, (2-cycloheptylimino-3-methyl-1,3-thiazolidine-4-yl)-N-(4-methylphenyl)-carboxamide] | 42.6% |
| CN1C(=NC2CCCCCC2)SCC1CC(=O)Nc1ccc(N)cc1 (stereo not drawn) [KHG24448, (2-cycloheptylimino-3-methyl-1,3-thiazolidine-4-yl)-N-(4-aminophenyl)-acetamide hydrochloride] | 47.4% |
| CN1C(=NC2CCCCCC2)SCC1CC(=O)NCc1ccc(N)cc1 (stereo not drawn) [KHG24449, (2-cycloheptylimino-3-methyl-1,3-thiazolidine-4-yl)-N-(4-aminobenzyl)-acetamide hydrochloride] | 40.5% |
| Cl.O=C(CC1CSC(=NC2CCCCC2)N1C1CCCCC1)Nc1cc(C(F)(F)F)cc(C(F)(F)F)c1 (stereo not drawn) [KHG24307, (2-cyclohexylimino-3-cyclohexyl-1,3-thiazolidine-4-yl)-N-(3,5-ditrifluoromethylphenyl)-acetamide hydrochloride] | 43.9% |
| CN1C(=NC2CCCCC2)SCC1CC(=O)Nc1cc(C(F)(F)F)cc(C(F)(F)F)c1 (stereo not drawn) [KHG24529, (2-cyclohexylimino-3-methyl-1,3-thiazolidine-4-yl)-N-(3,5-ditrifluoromethylphenyl)-acetamide hydrochloride] | 58.2% |
| CN1C(=NC2CCCCC2)SCC1CC(=O)Nc1ccc2c(c1)OCO2 (stereo not drawn) [KHG24086, (2-cyclohexylimino-3-methyl-1,3-thiazolidine-4-yl)-N-(3,4-methylenedioxyphenyl)-acetamide hydrochloride] | 30.5% |

Tested on: not given
Experiment: not given
Settings: not given

| melting point | Structure (SMILES) |
| --- | --- |
| 222 to 223 °C | CN1C(=Nc2ccc(C(F)(F)F)cc2)SCC1CC(=O)Nc1ccc(Cl)cc1F.Cl (stereo not drawn) [KHG23068, [2-(4-trifluoromethylphenylimino)-3-methyl-1,3-thiazolidine-4-yl]-N-(4-chloro-2-fluorophenyl)-acetamide hydrochloride] |
| 209 to 210.5 °C | CN1C(=NC2CCCC2)SCC1CC(=O)Nc1ccc(F)cc1Cl.Cl (stereo not drawn) [KHG24095, (2-cyclopentylimino-3-methyl-1,3-thiazolidine-4-yl)-N-(2-chloro-4-fluorophenyl)-acetamide hydrochloride] |

The remaining lines, values behind:

| Structure (SMILES) | melting point |
| --- | --- |
| CCN1C(=NC2CCCCC2)SCC1CC(=O)Nc1cc(C(F)(F)F)cc(C(F)(F)F)c1.Cl (stereo not drawn) [KHG24261, [2-cyclohexylimino-3-ethyl-1,3-thiazolidine-4-yl]-N-(3,5-ditrifluoromethylphenyl)-acetamide hydrochloride] | 226.4 °C |
| CN1C(=NC2CCCCCC2)SCC1C(=O)Nc1cc(F)ccc1F.Cl (stereo not drawn) [KHG24626, (2-cycloheptylimino-3-methyl-1,3-thiazolidine-4-yl)-N-(2,5-difluorophenyl)-carboxamide hydrochloride] | 187.9 °C |
| CN1C(=NC2CCCCCC2)SCC1C(=O)Nc1ccc(F)c(F)c1 (stereo not drawn) [KHG24627, (2-cycloheptylimino-3-methyl-1,3-thiazolidine-4-yl)-N-(3,4-difluorophenyl)-carboxamide] | 209.6 °C |
